The record followed here is US7589104B2, “Tricyclic-bridged piperidinyline derivatives as §-opioid modulators” (Janssen Pharmaceutica NV, priority 2004, dated 2009).

The structures appear in SMILES notation. Read-outs that look alike come from different tables or passages of the source.

The target in assay [1] is T1, mu opioid receptor (Rattus norvegicus, UniProt P33535).
T1 construct: Following incubation with the mu selective peptide ligand, ˜0.8 nM [^3H]DAMGO; from tissue; host or cells: forebrain of male Wistar rats (Charles River)
The experiment in a line: Rat Brain Mu Opioid Receptor Binding Assay.

Assay [2] addresses T2, delta opioid receptor (Rattus norvegicus, UniProt P33533).
T2 construct: from tissue; host or cells: forebrain of male Wistar rats (Charles River)
The experiment in a line: Rat Brain Delta Opioid Receptor Binding Assay.

T1 sequence (P33535 whole entry): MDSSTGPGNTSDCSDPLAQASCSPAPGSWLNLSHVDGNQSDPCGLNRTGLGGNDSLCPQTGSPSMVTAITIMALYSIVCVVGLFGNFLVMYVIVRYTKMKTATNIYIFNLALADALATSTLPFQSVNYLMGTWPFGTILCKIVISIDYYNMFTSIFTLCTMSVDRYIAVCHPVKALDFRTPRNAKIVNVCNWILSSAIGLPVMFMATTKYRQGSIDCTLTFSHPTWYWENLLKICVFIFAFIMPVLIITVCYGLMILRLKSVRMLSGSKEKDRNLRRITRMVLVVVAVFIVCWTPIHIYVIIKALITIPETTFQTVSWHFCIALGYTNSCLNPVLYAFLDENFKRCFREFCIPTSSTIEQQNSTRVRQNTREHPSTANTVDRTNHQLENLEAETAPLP
T2 sequence (P33533 whole entry): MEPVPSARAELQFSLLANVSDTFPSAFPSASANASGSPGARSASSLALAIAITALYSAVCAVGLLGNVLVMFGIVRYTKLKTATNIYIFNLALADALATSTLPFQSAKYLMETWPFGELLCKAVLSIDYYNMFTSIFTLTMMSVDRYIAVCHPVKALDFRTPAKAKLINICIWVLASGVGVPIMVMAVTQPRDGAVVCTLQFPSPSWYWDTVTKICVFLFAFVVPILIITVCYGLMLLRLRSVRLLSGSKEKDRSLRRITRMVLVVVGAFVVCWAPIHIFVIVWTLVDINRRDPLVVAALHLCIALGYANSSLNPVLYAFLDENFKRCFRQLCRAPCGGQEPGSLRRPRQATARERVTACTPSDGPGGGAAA

Consider `COc1cccc2c1Oc1cc(-c3ccccc3NC(C)=O)ccc1C2C1CC2CCC(C1)N2` (stereo not drawn) [Compound 2l, N-{2-[9-(8-Aza-bicyclo[3.2.1]oct-3-yl)-5-methoxy-9H-xanthen-3-yl]-phenyl}-acetamide], for which the Ki was determined as 3700 nM in assay [1] (rat forebrain membranes, [3H]DAMGO, read-out: mu (Ki)) and 180 nM in assay [2] (rat forebrain membranes, [3H]DPDPE or [3H]naltrindole, read-out: delta (Ki)).
`O=c1[nH]c(-c2ccc3c(c2)Oc2ccccc2C3C2CCNCC2)no1` (stereo not drawn) [Compound 2n, 3-(9-Piperidin-4-yl-9H-xanthen-3-yl)-4H-[1,2,4]oxadiazol-5-one]: the Ki in assay [2] is 1300 nM.
Consider `c1cncc(-c2ccc3c(c2)Oc2ccccc2C3C2CC3CCC(C2)N3)c1` (stereo not drawn) [Compound 3b, 3-(3-Pyridin-3-yl-9H-xanthen-9-yl)-8-aza-bicyclo[3.2.1]octane], for which the Ki is 4440 nM in assay [1] and 3150 nM in assay [2].
Consider `O=C(c1ccc2c(c1)Oc1ccccc1C2C1CC2CCC(C1)N2)N1CCCC1` (stereo not drawn) [Compound 3g, [9-(8-Aza-bicyclo[3.2.1]oct-3-yl)-9H-xanthen-3-yl]-pyrrolidin-1-yl-methanone], for which the Ki stood at 7600 nM in assay [1] and 831 nM in assay [2].
As to `CC(=O)Nc1ccccc1-c1ccc2c(c1)Oc1c(O)cccc1C2C1CC2CCC(C1)N2` (stereo not drawn) [Compound 3l, N-{2-[9-(8-Aza-bicyclo[3.2.1]oct-3-yl)-5-hydroxy-9H-xanthen-3-yl]-phenyl}-acetamide], the Ki was 20.4 nM in assay [1] and 1.55 nM in assay [2].
Molecule `O=C(c1ccc2c(c1)Oc1ccccc1C2C1CC2CCC(C1)N2)N1CCC(O)C1` (stereo not drawn) [Compound 3o, [9-(8-Aza-bicyclo[3.2.1]oct-3-yl)-9H-xanthen-3-yl]-(3-hydroxy-pyrrolidin-1-yl)-methanone] yielded a Ki in assay [2] of 1210 nM.
With `c1cncc(-c2ccc3c(c2)Oc2ccccc2C3C2CC3CCC(C2)N3Cc2ccoc2)c1` (stereo not drawn) [Compound 4b, 8-Furan-3-ylmethyl-3-(3-pyridin-3-yl-9H-xanthen-9-yl)-8-aza-bicyclo[3.2.1]-octane], the Ki in assay [1] worked out at 556 nM; in assay [2] it was 29.2 nM.
`CC(=O)Nc1ccccc1-c1ccc2c(c1)Oc1c(O)cccc1C2C1CC2CCC(C1)N2Cc1ccoc1` (stereo not drawn) [Compound 4l, N-{2-[9-(8-Furan-3-ylmethyl-8-aza-bicyclo[3.2.1]oct-3-yl)-5-hydroxy-9H-xanthen-3-yl]-phenyl}-acetamide] yielded a Ki in assay [2] of 22.2 nM.
`CCN(CC)C(=N)c1ccc2c(c1)Oc1ccccc1C2C1CC2CCC(C1)N2` (stereo not drawn) [Compound 4m, 9-(8-Aza-bicyclo[3.2.1]oct-3-yl)-N,N-diethyl-9H-xanthene-3-carboxamidine] showed a Ki in assay [2] of 208 nM.
For `c1ccc2c(c1)Oc1cc(-c3ccoc3)ccc1C2C1CC2CCC(C1)N2` (stereo not drawn) [Compound 5b, 3-(3-Furan-3-yl-9H-xanthen-9-yl)-8-aza-bicyclo[3.2.1]octane], the Ki amounted to 19700 nM in assay [1] and 3450 nM in assay [2].
On the same counts, the results for `c1ccc2c(c1)Oc1cc(-c3nnn[nH]3)ccc1C2C1CC2CCC(C1)N2` (stereo not drawn) [Compound 5j, 3-[3-(1H-Tetrazol-5-yl)-9H-xanthen-9-yl]-8-aza-bicyclo[3.2.1]octane] are 4780 nM and 477 nM.
`CC(=O)Nc1ccccc1-c1ccc2c(c1)Oc1c(O)cccc1C2C1CC2CCC(C1)N2Cc1cccs1` (stereo not drawn) [Compound 5l, N-{2-[5-Hydroxy-9-(8-thiophen-2-ylmethyl-8-aza-bicyclo[3.2.1]oct-3-yl)-9H-xanthen-3-yl]-phenyl}-acetamide] had a Ki in assay [2] of 6.51 nM.
The same measure, in the same setting: as for `CCN(CC)C(=N)c1ccc2c(c1)Oc1ccccc1C2C1CC2CCC(C1)N2Cc1ccoc1` (stereo not drawn) [Compound 5m, N,N-Diethyl-9-(8-furan-3-ylmethyl-8-aza-bicyclo[3.2.1]oct-3-yl)-9H-xanthene-3-carboxamidine], the figure is 234 nM.
Regarding `c1ccc2c(c1)Oc1cc(-c3ccsc3)ccc1C2C1CC2CCC(C1)N2` (stereo not drawn) [Compound 6b, 3-(3-Thiophen-3-yl-9H-xanthen-9-yl)-8-aza-bicyclo[3.2.1]octane], the Ki in assay [1] was 83200 nM; in assay [2] it was 5800 nM.
For `CCN(CC)C(=O)c1ccc2c(c1)Oc1c(C)cccc1C2C1CC2CCC(C1)N2` (stereo not drawn) [Compound 6h, 9-(8-Aza-bicyclo[3.2.1]oct-3-yl)-5-methyl-9H-xanthene-3-carboxylic acid diethylamide], the Ki was determined as 4700 nM in assay [1] and 73 nM in assay [2].
On the same counts, the results for `CCN(CC)C(=O)c1ccc2c(c1)Oc1c(Cl)cccc1C2C1CC2CCC(C1)N2` (stereo not drawn) [Compound 6i, 9-(8-Aza-bicyclo[3.2.1]oct-3-yl)-5-chloro-9H-xanthene-3-carboxylic acid diethylamide] are over 10000 nM and 3350 nM.
Turning to `c1ccc2c(c1)Oc1cc(-c3nnn[nH]3)ccc1C2C1CC2CCC(C1)N2Cc1ccoc1` (stereo not drawn) [Compound 6j, 8-Furan-3-ylmethyl-3-[3-(1H-tetrazol-5-yl)-9H-xanthen-9-yl]-8-aza-bicyclo[3.2.1]octane], the Ki in assay [2] turned out to be 20.6 nM.
`CC(=O)Nc1ccccc1-c1ccc2c(c1)Oc1c(O)cccc1C2C1CC2CCC(C1)N2Cc1ccccn1` (stereo not drawn) [Compound 6l, N-{2-[5-Hydroxy-9-(8-pyridin-2-ylmethyl-8-aza-bicyclo[3.2.1]oct-3-yl)-9H-xanthen-3-yl]-phenyl}-acetamide] showed a Ki in assay [2] of 49.9 nM.
Regarding `CCN(CC)C(=N)c1ccc2c(c1)Oc1ccccc1C2C1CC2CCC(C1)N2Cc1cccs1` (stereo not drawn) [Compound 6m, N,N-Diethyl-9-(8-thiophen-2-ylmethyl-8-aza-bicyclo[3.2.1]oct-3-yl)-9H-xanthene-3-carboxamidine], in assay [2], the Ki turned out to be 162 nM.
Same read-out and setting: as for `c1csc(CN2C3CCC2CC(C2c4ccccc4Oc4cc(-c5nnn[nH]5)ccc42)C3)c1` (stereo not drawn) [Compound 7j, 3-[3-(1H-Tetrazol-5-yl)-9H-xanthen-9-yl]-8-thiophen-2-ylmethyl-8-aza-bicyclo[3.2.1]octane], the figure is 13.8 nM; as for `CC(=O)Nc1ccccc1-c1ccc2c(c1)Oc1c(O)cccc1C2C1CC2CCC(C1)N2Cc1ccccc1` (stereo not drawn) [Compound 7l, N-{2-[9-(8-Benzyl-8-aza-bicyclo[3.2.1]oct-3-yl)-5-hydroxy-9H-xanthen-3-yl]-phenyl}-acetamide], 21.8 nM.
For the molecule `CCN(CC)C(=N)c1ccc2c(c1)Oc1ccccc1C2C1CC2CCC(C1)N2Cc1ccccn1` (stereo not drawn) [Compound 7m, N,N-Diethyl-9-(8-pyridin-2-ylmethyl-8-aza-bicyclo[3.2.1]oct-3-yl)-9H-xanthene-3-carboxamidine], in assay [2], the Ki turned out to be 17.3 nM.
Still for that read-out and setting: in the case of `c1ccc(CN2C3CCC2CC(C2c4ccccc4Oc4cc(-c5nnn[nH]5)ccc42)C3)nc1` (stereo not drawn) [Compound 8j, 8-Pyridin-2-ylmethyl-3-[3-(1H-tetrazol-5-yl)-9H-xanthen-9-yl]-8-aza-bicyclo[3.2.1]octane] it was 178 nM; in that of `CC(=O)Nc1ccccc1-c1ccc2c(c1)Oc1c(O)cccc1C2C1CC2CCC(C1)N2CCc1ccccc1` (stereo not drawn) [Compound 8l, N-{2-[5-Hydroxy-9-(8-phenethyl-8-aza-bicyclo[3.2.1]oct-3-yl)-9H-xanthen-3-yl]-phenyl}-acetamide], 26.6 nM; in that of `CCN(CC)C(=N)c1ccc2c(c1)Oc1ccccc1C2C1CC2CCC(C1)N2Cc1ccccc1` (stereo not drawn) [Compound 8m, 9-(8-Benzyl-8-aza-bicyclo[3.2.1]oct-3-yl)-N,N-diethyl-9H-xanthene-3-carboxamidine], 349 nM.
The molecule `c1ccc(CN2C3CCC2CC(C2c4ccccc4Oc4cc(-c5nnn[nH]5)ccc42)C3)cc1` (stereo not drawn) [Compound 9j, 8-Benzyl-3-[3-(1H-tetrazol-5-yl)-9H-xanthen-9-yl]-8-aza-bicyclo[3.2.1]octane] displayed a Ki in assay [2] of 176 nM.
In the case of `Oc1cccc2c1Oc1cc(-c3cccnc3)ccc1C2C1CC2CCC(C1)N2Cc1ccoc1` (stereo not drawn) [Compound 9k, 9-(8-Furan-3-ylmethyl-8-aza-bicyclo[3.2.1]oct-3-yl)-6-pyridin-3-yl-9H-xanthen-4-ol], the Ki in assay [2] is 50.3 nM.
For the molecule `CC(=O)Nc1ccccc1-c1ccc2c(c1)Oc1c(O)cccc1C2C1CC2CCC(C1)N2Cc1ncc[nH]1` (stereo not drawn) [Compound 9l, N-(2-{5-Hydroxy-9-[8-(1H-imidazol-2-ylmethyl)-8-aza-bicyclo[3.2.1]oct-3-yl]-9H-xanthen-3-yl}-phenyl)-acetamide], the Ki in assay [2] amounted to 4.9 nM.
Same read-out and setting: in the case of `CCN(CC)C(=N)c1ccc2c(c1)Oc1ccccc1C2C1CC2CCC(C1)N2CCc1ccccc1` (stereo not drawn) [Compound 9m, N,N-Diethyl-9-(8-phenethyl-8-aza-bicyclo[3.2.1]oct-3-yl)-9H-xanthene-3-carboxamidine] it was 903 nM.
Molecule `c1ccc(CCN2C3CCC2CC(C2c4ccccc4Oc4cc(-c5nnn[nH]5)ccc42)C3)cc1` (stereo not drawn) [Compound 10j, 8-Phenethyl-3-[3-(1H-tetrazol-5-yl)-9H-xanthen-9-yl]-8-aza-bicyclo[3.2.1]octane] returned a Ki in assay [2] of 1150 nM.
In assay [2], `Oc1cccc2c1Oc1cc(-c3cccnc3)ccc1C2C1CC2CCC(C1)N2Cc1cccs1` (stereo not drawn) [Compound 10k, 6-Pyridin-3-yl-9-(8-thiophen-2-ylmethyl-8-aza-bicyclo[3.2.1]oct-3-yl)-9H-xanthen-4-ol] came in with a Ki of 45.2 nM.
For the molecule `Oc1cccc2c1Oc1cc(-c3cccnc3)ccc1C2C1CC2CCC(C1)N2Cc1ccccn1` (stereo not drawn) [Compound 11k, 6-Pyridin-3-yl-9-(8-pyridin-2-ylmethyl-8-aza-bicyclo[3.2.1]oct-3-yl)-9H-xanthen-4-ol], the Ki in assay [2] is 3.05 nM.
`Oc1cccc2c1Oc1cc(-c3cccnc3)ccc1C2C1CC2CCC(C1)N2Cc1ccccc1` (stereo not drawn) [Compound 12k, 9-(8-Benzyl-8-aza-bicyclo[3.2.1]oct-3-yl)-6-pyridin-3-yl-9H-xanthen-4-ol] returned a Ki in assay [2] of 39.4 nM.
On the same count and under the same terms, as for `Oc1cccc2c1Oc1cc(-c3cccnc3)ccc1C2C1CC2CCC(C1)N2CCc1ccccc1` (stereo not drawn) [Compound 13k, 9-(8-Phenethyl-8-aza-bicyclo[3.2.1]oct-3-yl)-6-pyridin-3-yl-9H-xanthen-4-ol], the figure is 281 nM; as for `c1cncc(-c2ccc3c(c2)Oc2ccccc2C3C2CC3CCC(C2)N3Cc2ncc[nH]2)c1` (stereo not drawn) [Compound 26b, 8-(1H-Imidazol-2-ylmethyl)-3-(3-pyridin-3-yl-9H-xanthen-9-yl)-8-aza-bicyclo[3.2.1]octane], 338 nM.
